Source: patent publication US20030039673A1, “DISINFECTION BY PARTICLE-BOUND AND INS[…]” (priority 1997, published 2003)

How the values were obtained:
[1] = Detergent binding to resin, foaming of supernatant; format: physicochemical; set-up: key: foaming presence (+); absence (−); conditions: 10 mM detergent solution incubated with resin beads
[2] = Detergent binding to resin, foaming of supernatant; format: physicochemical; set-up: key: foaming presence (+); absence (−); conditions: 10 mM detergent solution incubated with resin beads; remark: listed apart in the source
[3] = Detergent binding to resin, foaming of supernatant; format: physicochemical; set-up: key: foaming presence (+); absence (−); conditions: 10 mM detergent solution incubated with resin beads; remark: listed apart in the source
viruses = conditions: even in the presence of plasma proteins; basis of copending application Ser. No. 08/785,984; cited from earlier work
EMC virus = assay: Viral end point assay of EMC-spiked plasma; format: cell-based

Row | Compound | foaming of supernatant as indicator of detergent presence, Calbiosorb [1] | foaming of supernatant as indicator of detergent presence, Polystyrene [2] | foaming of supernatant as indicator of detergent presence, Purolite [3] | level effective at inactivating some viruses (viruses) | Titer (EMC virus; 100 mM triclosan in 2% aqueous Triton X-100, 5 mL added to 50 mL EMC-spiked plasma, 60 min room temperature) | virucidal effectiveness compared with Triton plus triclosan (EMC virus; 0.2% Triton alone) | hemolysis (red blood cells (RBC))
1 | C[C@H](CCC(=O)NCCC[N+](C)(C)CCCS(=O)(=O)[O-])[C@H]1CC[C@H]2[C@@H]3[C@H](O)C[C@@H]4C[C@H](O)CC[C@]4(C)[C@H]3C[C@H](O)[C@]12C [CHAPS, 3-[(3-Chloramidopropyl)-dimethylammonio]-1-propanesulfanate] | − | + |  |  |  |  | 
2 | C[C@H](CCC(=O)NCCC[N+](C)(C)CC(O)CS(=O)(=O)[O-])[C@H]1CC[C@H]2[C@@H]3[C@H](O)C[C@@H]4C[C@H](O)CC[C@]4(C)[C@H]3C[C@H](O)[C@]12C (stereo partly drawn) [CHAPSO, 3-[(3-Chloramidopropyl)-dimethylammonio]-2-hydroxyl 1-propanesulfanate] | − | + |  |  |  |  | 
3 | CCCCCCCC(=O)O [Caprylate, caprylic acid] | − | + | − |  |  |  | 
4 | C[C@H](CCC(=O)O)[C@H]1CC[C@H]2[C@@H]3[C@H](O)C[C@@H]4C[C@H](O)CC[C@]4(C)[C@H]3C[C@H](O)[C@]12C [Cholate, cholic acid] | − | + | − |  |  |  | 
5 | CCCCCCCCOC(=O)CC(C(=O)OCCCCCCCC)S(=O)(=O)O (stereo not drawn) [DSS, dioctyl sulfosuccinate] | − | + | − |  |  |  | 
6 | C[C@H](CCC(=O)O)[C@H]1CC[C@H]2[C@@H]3CC[C@@H]4C[C@H](O)CC[C@]4(C)[C@H]3C[C@H](O)[C@]12C [Deoxycholate, deoxycholic acid] | − | + | − |  |  |  | 
7 | CCCCCCCCO[C@@H]1O[C@H](CO)[C@@H](O)[C@H](O)[C@H]1O [OG, n-octyl-B-D-glucopyranoside] | − | + | + | about 0.03% |  |  | 
8 | CCCCCCCCCCCCOS(=O)(=O)[O-].[Na+] [SDS, sodium dodecylsulfate] | − | + | − |  |  |  | 
9 | CCCCCCCCCCCCCC[N+](C)(C)C.[Br-] [TTAB, tetradecyltrimethylammonium bromide] | − | + |  |  |  |  | 
10 | Oc1cc(Cl)ccc1Oc1ccc(Cl)cc1Cl [Triclosan, triclosan] |  |  |  |  | 0 |  | 
11 | Triton X-100 | − | + | + |  |  | not nearly effective as Triton plus triclosan | immediate hemolysis
12 | benzalkonium chloride [BC] | − | + |  |  |  |  | 
